Results taken from patent US7163960B2, “Treatment and prevention of inflammatory disorders” (Monsanto Technology L.L.C., priority 2002, dated 2007).
Marks after values point to notes of the source that are not given here.

Assays:
Format in all cases: in vivo, human
IL-1β = IL-1β synthesis in LPS-treated whole blood; conditions: for IL-1β synthesis in LPS-treated whole blood: mean ± SD
Description: (§1) Following a 3-week run-in period, subjects ingested either ALA, SDA, EPA supplied as ethyl esters in capsules. Intakes were 0.75 g/day for 3 weeks followed by 1.5 g/day for the subsequent 3 weeks.
(§2) Blood (4 mL) was added to heparinised tubes, bacterial lipopolysaccharide (LPS) was added (200 ng/mL), and the mixture was incubated at 37° C., 5% CO2, for 24 h. Plasma was collected and assayed for prostaglandin E2 (PGE2) by radioimmunoassay (RIA), interleukin-1β (IL-1β) and tumor necrosis factor-α (TNF-α) by ELISA, as described in Mantzioris et al., supra.

prostaglandin E2 (PGE2) = assay: PGE2 synthesis in LPS-stimulated whole blood; conditions: for PGE2 synthesis in LPS-stimulated whole blood: mean ± SD
Description: as §1, §2

[1] = Fatty acid analysis of blood cell phospholipids and plasma lipid fractions after ingestion of test fatty acids; conditions: both, human, in vivo
From the text: 45 males and post-menopausal female—19–65 years of age, normolipidemic, and with a body mass index (BMI) in the range 20 to 30, were recruited. Exclusion criteria included bleeding disorders, hypertension, inflammatory disorders, active gastrointestinal diseases, chronic use of low dose aspirin, consumption of restaurant or takeaway evening meals more than twice per week, use of dietary supplements rich in n-3 or n-6 fatty acids, habitual consumption of more than 1 fish meal per month, and plasma phospholipid EPA+DHA levels>7.9% of total fatty acids (level achieved in the study group was 4.9±1.0% of total fatty acids).
as §1
At each visit, 36 mL of blood was taken by venepuncture after an overnight fast. Blood was aliquoted into various tubes for the following procedures.
Blood (20 mL) was added to tubes containing 4 mL 4.5% EDTA in water and 4 mL—6% dextran in normal saline, pH 7.0. Erythrocytes were allowed to sediment under gravity at 37° C. for 30 min. The leucocyte-rich plasma was layered onto LYMPHOPREP, density 1.077 (Nycomed Pharma, Oslo) and centrifuged at 110 g for 10 min to separate leucocytes from the platelets, which were removed. The gradient was further centrifuged at 200 g for 20 min to separate the neutrophils from mononuclear cells, which were removed.
Samples were processed for fatty acid analysis as described in Mantzioris et al., Am. J. Clin. Nutr., 72:42–8 (2000). Plasma, washed platelet and mononuclear cell pellets were stored at −80° C. Erythrocyte pellets were treated fresh with chloroform:isopropanol (2:1) and the lipid extracts stored at 4° C. Plasma, platelet and mononuclear cell pellets were extracted with chloroform:methanol. The cellular and plasma lipid extracts were fractionated by thin-layer chromatography. For the cellular extracts, the phospholipid fraction was retained and for the plasma extracts, the phospholipid, cholesterol ester, and triglyceride fractions were retained. These were transesterified by methanolysis (1% H2SO4 in methanol at 70° C. for 3 h). Fatty acid methyl esters were separated and quantified with a HEWLETT-PACKARD 6890 gas chromatograph equipped with a 50 m capillary column coated with BPX-70 (0.25 μm film thickness; SGE Pty Ltd, Victoria, Australia) (see Mantzioris et al., supra). Fatty acid standards were obtained from NuChek Prep Inc. (Elysian, Minn.) and included stearidonic acid obtained from Sigma Aldrich Pty Ltd. (Castle Hill, NSW, Australia). All organic solvents contained butylated hydroxy anisole (0.005%) as an antioxidant.

TNF-α = TNF-α synthesis in LPS-treated whole blood; conditions: for TNF-α synthesis in LPS-treated whole blood: mean ± SD
Description: as §1, §2

[2] = Week 3 (after 0.75 g/day for 3 weeks)
[3] = Week 6 (after 1.5 g/day for 3 weeks)
[4] = Week −3 (start of run-in, before dosing)

CC/C=C\C/C=C\C/C=C\CCCCCCCC(=O)O [ALA, α-linolenic acid]
Effect on LPS-stimulated IL-1β synthesis (IL-1β; 0.75 g/day or 1.5 g/day (either dose)): no effect | IL-1β synthesis in LPS-treated whole blood (IL-1β; Week 0 (baseline)): 96.9 ± 30.9 ng/mL | IL-1β synthesis in LPS-treated whole blood (IL-1β; [2]): 87.3 ± 29.9 ng/mL | IL-1β synthesis in LPS-treated whole blood (IL-1β; [3]): 83.3 ± 24.0 ng/mL | IL-1β synthesis in LPS-treated whole blood (IL-1β; [4]): 97.9 ± 27.4 ng/mL | Effect on LPS-stimulated PGE2 synthesis (prostaglandin E2 (PGE2); 1.5 g/day): no change | Effect on LPS-stimulated PGE2 synthesis (prostaglandin E2 (PGE2); Visit 3, following ingestion of 0.75 g): statistically significant increases | PGE2 synthesis in LPS-stimulated whole blood (prostaglandin E2 (PGE2); Week 0 (baseline)): 4.63 ± 2.21^a ng/mL | PGE2 synthesis in LPS-stimulated whole blood (prostaglandin E2 (PGE2); [2]): 6.25 ± 3.00^b ng/mL | PGE2 synthesis in LPS-stimulated whole blood (prostaglandin E2 (PGE2); [3]): 4.30 ± 1.37^a ng/mL | PGE2 synthesis in LPS-stimulated whole blood (prostaglandin E2 (PGE2); [4]): 4.00 ± 1.65^a ng/mL | DHA (% of total fatty acids), Erythrocyte phospholipid ([1]; 0 week): 4.61 ± 0.71^b % of total fatty acids | DHA (% of total fatty acids), Plasma phospholipid ([1]; 0 weeks): 3.64 ± 0.65 % of total fatty acids | DPA (% of total fatty acids), Erythrocyte phospholipid ([1]; 0 weeks): 3:08 ± 0:35 % of total fatty acids | DPA (% of total fatty acids), Plasma phospholipid ([1]; 0 weeks): 1.39 ± 0.26^ab % of total fatty acids | EPA (% of total fatty acids), Monocyte ([1]; 0 weeks): 0.57 (0.11)a % of total fatty acids | EPA (% of total fatty acids), Plasma CE ([1]; 0 weeks): 1.16 (0.33)ab % of total fatty acids | EPA (% of total fatty acids), Plasma Phospholipid ([1]; 0 weeks): 1.16 (0.31)ab % of total fatty acids | EPA (% of total fatty acids), Plasma TG ([1]; 0 weeks): 0.27 (0.12) % of total fatty acids | EPA (% of total fatty acids), Platelet ([1]; 0 weeks): 0.48 (0.11)a % of total fatty acids | EPA (% of total fatty acids), Red Blood ([1]; 0 weeks): 0.88 (0.17)a % of total fatty acids | EPA (% of total fatty acids), Monocyte ([1]; 3 weeks): 0.63 (0.14)a3 % of total fatty acids | EPA (% of total fatty acids), Plasma CE ([1]; 3 weeks): 1.35 (0.58)bc2 % of total fatty acids | EPA (% of total fatty acids), Plasma Phospholipid ([1]; 3 weeks): 1.33 (0.54)bc3 % of total fatty acids | EPA (% of total fatty acids), Plasma TG ([1]; 3 weeks): 0.32 (0.13)2 % of total fatty acids | EPA (% of total fatty acids), Platelet ([1]; 3 weeks): 0.55 (0.14)a2 % of total fatty acids | EPA (% of total fatty acids), Red Blood ([1]; 3 weeks): 0.92 (0.23)a3 % of total fatty acids | EPA (% of total fatty acids), Monocyte ([1]; 6 weeks): 0.81 (0.28)b2 % of total fatty acids | EPA (% of total fatty acids), Plasma CE ([1]; 6 weeks): 1.41 (0.36)c3 % of total fatty acids | EPA (% of total fatty acids), Plasma Phospholipid ([1]; 6 weeks): 1.43 (0.40)c3 % of total fatty acids | EPA (% of total fatty acids), Plasma TG ([1]; 6 weeks): 0.34 (0.16)2 % of total fatty acids | EPA (% of total fatty acids), Platelet ([1]; 6 weeks): 0.64 (0.21)b2 % of total fatty acids | EPA (% of total fatty acids), Red Blood ([1]; 6 weeks): 1.01 (0.18)b3 % of total fatty acids | DHA (% of total fatty acids), Erythrocyte phospholipid ([1]; -3 week): 4.87 ± 0.74^a % of total fatty acids | DHA (% of total fatty acids), Plasma phospholipid ([1]; -3 weeks): 3.70 ± 0.63 % of total fatty acids | DPA (% of total fatty acids), Erythrocyte phospholipid ([1]; -3 weeks): 3.10 ± 0.40 % of total fatty acids | DPA (% of total fatty acids), Plasma phospholipid ([1]; -3 weeks): 1.29 ± 0.18^a % of total fatty acids | EPA (% of total fatty acids), Monocyte ([1]; -3 weeks): 0.67 (0.20)^a % of total fatty acids | EPA (% of total fatty acids), Plasma CE ([1]; -3 weeks): 1.11 (0.26)^a % of total fatty acids | EPA (% of total fatty acids), Plasma Phospholipid ([1]; -3 weeks): 1.07 (0.23)^a % of total fatty acids | EPA (% of total fatty acids), Plasma TG ([1]; -3 weeks): 0.26 (0.08) % of total fatty acids | EPA (% of total fatty acids), Platelet ([1]; -3 weeks): 0.44 (0.12)^a % of total fatty acids | EPA (% of total fatty acids), Red Blood ([1]; -3 weeks): 0.88 (0:16)^a % of total fatty acids | Effect on LPS-stimulated TNF synthesis (TNF-α; 1.5 g/day): statistically significant decreases | TNF-α synthesis in LPS-treated whole blood (TNF-α; Week 0 (baseline)): 36.8 ± 17.4^a ng/mL | TNF-α synthesis in LPS-treated whole blood (TNF-α; [2]): 32.7 ± 11.9^a ng/mL | TNF-α synthesis in LPS-treated whole blood (TNF-α; [3]): 25.3 ± 7.2^b ng/mL | TNF-α synthesis in LPS-treated whole blood (TNF-α; [4]): 30.9 ± 13.1^a ng/mL
